Source: patent publication US20080113924A1, “Neuramindase Inhibitor” (priority 2004, published 2008)

Molecular target: T1, Neuraminidase (Derived from Vibrio cholerae) (Vibrio cholerae serotype O1, UniProt P0C6E9)
T1 construct: host or cells: Vibrio cholerae (printed as 'Vibro-Choralie')
Experiment: Inhibition activity against neuraminidase (pre-incubation, p-nitrophenyl-α-N-acetyl neuraminic acid hydrolysis, absorbance 405 nm)
Format: biochemical
Conditions: irreversible inhibitor; pre-incubation 0, 10 or 30 min with 0-0.5 mM, pH 5.0; calculated from inhibition curve (FIG. 3); read-out: inhibition constant (Ki)
Procedure: Neuraminidase (50 μg) produced by Vibro-Choralie was pre-incubated in 50 mM phosphoric acid-tartaric acid buffer (pH 5.0, 10 μ1) together with the compound 6 (0, 0.05, 0.1, 0.2, and 0.5 mM), after 0, 10 or 30 minutes, 2 μl of the reaction solution was fractionated, respectively. The fractionated and pre-incubated solution was immediately incubated for 5 minutes in 50 mM phosphoric acid-tartaric acid buffer (pH 5.0, 50 μl) using 5 mM p-nitrophenyl-α-N-acetyl neuraminic acid. Then, glycine buffer (pH 11.0, […]) was added to each fractionated solution to stop the reaction. The amount of p-nitrophenol produced by hydrolysis reaction of neuraminidase was calculated by absorbance determination at 405 nm.

T1 sequence (P0C6E9 25-781): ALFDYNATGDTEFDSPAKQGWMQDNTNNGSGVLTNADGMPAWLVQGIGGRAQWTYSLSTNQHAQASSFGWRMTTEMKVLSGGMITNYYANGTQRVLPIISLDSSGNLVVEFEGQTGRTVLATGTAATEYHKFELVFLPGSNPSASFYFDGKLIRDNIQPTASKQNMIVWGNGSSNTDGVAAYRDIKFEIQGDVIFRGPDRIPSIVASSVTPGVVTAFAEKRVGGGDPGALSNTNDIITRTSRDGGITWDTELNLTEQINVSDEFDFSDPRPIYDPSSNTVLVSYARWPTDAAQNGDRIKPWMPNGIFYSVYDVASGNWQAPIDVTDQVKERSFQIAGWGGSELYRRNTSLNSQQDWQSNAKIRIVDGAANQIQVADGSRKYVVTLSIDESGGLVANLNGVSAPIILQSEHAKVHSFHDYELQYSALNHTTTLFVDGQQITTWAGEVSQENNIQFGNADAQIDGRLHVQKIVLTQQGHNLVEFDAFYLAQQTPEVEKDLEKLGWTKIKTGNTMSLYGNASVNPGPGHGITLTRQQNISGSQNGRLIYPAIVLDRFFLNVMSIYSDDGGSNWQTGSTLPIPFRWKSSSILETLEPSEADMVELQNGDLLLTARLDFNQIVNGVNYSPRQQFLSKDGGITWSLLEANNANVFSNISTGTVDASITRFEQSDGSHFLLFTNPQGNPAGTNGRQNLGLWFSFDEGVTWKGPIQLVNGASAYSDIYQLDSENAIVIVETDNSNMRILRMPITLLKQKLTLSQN

Question: Which Ki does the source give for CC(=O)NC1C(O)CC(Oc2ccc(NS(=O)(=O)c3cccc4c(N(C)C)cccc34)cc2C(F)F)(C(=O)O)OC1C(O)C(O)CO (stereo not shown) [compound 6] here?
Answer: The Ki was 1900 µM.
